# Test results from US8557796B2, “Substituted 1-oxa-2,8-diaza-spiro [4,5] dec-2-ene derivatives and related treatment methods” (Gruenenthal GmbH, priority 2001, dated 2013).
# System: batrachotoxin (BTX) binding site (binding site 2) of the sodium channel
# Test: Bond test on the sodium channel, binding site 2 (BTX bond), [3H]-batrachotoxinin A20 α-benzoate displacement
# Conditions: rat cerebrocortex synaptosomes
row,Structure (SMILES),"BTX bond, 10 μM, % inhibition [%]"
1,"O=C(C1=NOC2(CCN(S(=O)(=O)c3cc(Cl)ccc3Cl)CC2)C1)N1CCN(Cc2ccccc2)CC1 [Example 209, (4-benzyl-piperazin-l-yl)-[8-(2,5-dichloro-benzenesulphonyl)-1-oxa-2,8-diaza-spiro[4,5]dec-2-en-3-yl]-methanone]",61
2,"O=C(NCc1ccccc1)C1=NOC2(CCN(S(=O)(=O)c3cccc(Cl)c3)CC2)C1 [Example 210, 8-(3-chloro-benzenesulphonyl)-1-oxa-2,8-diaza-spiro[4,5]dec-2-ene-3-carboxylic acid benzylamide]",62
3,"O=C(C1=NOC2(CCN(S(=O)(=O)c3cccc(C(F)(F)F)c3)CC2)C1)N1CCC(Cc2ccccc2)CC1 [Example 211, (4-benzyl-piperidin-l-yl)-[8-(3-trifluoromethyl-benzene-sulphonyl)-1-oxa-2,8-diaza-spiro[4,5]dec-2-en-3-yl]-methanone]",48
4,"O=C(NCc1ccccc1)C1=NOC2(CCN(C(=O)c3ccc(Br)cc3)CC2)C1 [Example 212, 8-(4-bromo-benzoyl)-1-oxa-2,8-diaza-spiro[4,5]dec-2-ene-3-carboxylic acid benzylamide]",58
5,"CC(C)CC(NC(=O)C1=NOC2(CCN(S(=O)(=O)c3cccc(C(F)(F)F)c3)CC2)C1)C(=O)OC(C)(C)C (centres unmarked) [Example 214, 4-methyl-2-{[8-(3-trifluoromethyl-benzenesulphonyl)-1-oxa-2,8-diaza-spiro[4,5]dec-2-ene-3-carbonyl]-amino}-pentanoic acid tert-butyl ester]",61
6,"CCN(CCNC(=O)C1=NOC2(CCN(S(=O)(=O)N(C)C)CC2)C1)c1cccc(C)c1 [Example 216, 8-dimethylsulphamoyl-1-oxa-2,8-diaza-spiro[4,5]dec-2-ene-3-carboxylic acid [2-(ethyl-m-tolyl-amino)-ethyl]amide]",64
7,"Cc1cc(C(=O)N2CCC3(CC2)CC(C(=O)NCc2ccccc2)=NO3)c(C)o1 [Example 217, 8-(2,5-dimethyl-furan-3-carbonyl)-1-oxa-2,8-diaza-spiro[4,5]dec-2-ene-3-carboxylic acid benzylamide]",51
8,O=C(C1=NOC2(CCN(S(=O)(=O)c3ccc(F)cc3)CC2)C1)N1CCN(C2CCCCCC2)CC1 [Example 218],79
